By IC50 is commonly meant the midpoint of a concentration-inhibition curve. A low value points to greater potency in that assay.

Where only a bound is given, the exact number is not on record here.

Common to all, as to format: functional, cell-based
Test [1] in a line: Cytotoxicity against human HL60 cells by MTT assay. Conditions: HL-60. (Formazan colour is commonly taken as a measure of viable cells.)
Another test has as its system SW480. The test is described as follows: Cytotoxicity against human SW480 cells by MTT assay.
Another test has as its system A549. The test is described as follows: Cytotoxicity against human A549 cells by MTT assay.
A further test deals with MCF7. The test is described as follows: Cytotoxicity against human MCF7 cells by MTT assay.
Test [2] is described as follows: Cytotoxicity against human SMMC7721 cells by MTT assay. Particulars: SMMC-7721.

`Cc1ccc(C[n+]2cn(CC(=O)N3CCC4(C)c5ccccc5N(C)C34)c3cc(C)c(C)cc32)cc1` (stereo not given): the IC50 in test [1] amounted to 1.52 µM; with SW480 it was 7.57 µM; in the test with A549, 10.5 µM; with MCF7, 5.79 µM; in test [2], 4.52 µM.
Consider `CN1c2ccccc2C2(C)CCN(C(=O)Cn3c[n+](Cc4ccc5ccccc5c4)c4ccccc43)C12` (stereo not given), for which the IC50 in test [1] worked out at 2.8 µM; in the test with SW480 it was 7.95 µM; in the test on A549, 14.1 µM; in the test on MCF7 it was 6.86 µM; in test [2], 7.45 µM.
On the same counts, the results for `Cc1n(CC(=O)N2CCC3(C)c4ccccc4N(Cc4ccccc4)C23)cc[n+]1CC(=O)c1ccc(Br)cc1` (stereo not given) are 7.75 µM, more than 20 µM, more than 20 µM, more than 20 µM and more than 20 µM.
Turning to `CC12CCN(C(=O)Cn3c[n+](Cc4ccccc4Br)c4ccccc43)C1N(Cc1ccccc1)c1ccccc12` (stereo not given), the concentration for half-maximal inhibition (IC50) in test [1] is 1.21 µM; in the test on SW480 it was 6.35 µM; with A549, 6.76 µM; in the test on MCF7, 2.23 µM; in test [2], 4.69 µM.
Consider `Cc1ccc(C[n+]2c(C)n(CC(=O)N3CCC4(C)c5ccccc5N(C)C34)c3ccccc32)cc1` (stereo not given), for which the half-maximal inhibitory concentration (IC50) in test [1] was 2.25 µM; with SW480, more than 20 µM; with A549 it was more than 20 µM; in the test with MCF7, 10.8 µM; in test [2], 8.03 µM.
Consider `Cc1nccn1CC(=O)N1CCC2(C)c3ccccc3N(C)C12` (stereo not given), for which the half-maximal inhibitory concentration (IC50) (in test [1]; with SW480; with A549; with MCF7; in test [2]) was more than 20 µM in each case.
With `Cc1cc2c(cc1C)[n+](CC(=O)c1ccc(Br)cc1)cn2CC(=O)N1CCC2(C)c3ccccc3N(Cc3ccccc3)C12` (stereo not given), the IC50 in test [1] was determined as 1.55 µM; in the test with SW480, 1.68 µM; in the test with A549 it was 8.01 µM; with MCF7, 2.78 µM; in test [2] it was 6.22 µM.
For the molecule `Cc1cc2c(cc1C)[n+](CC(=O)c1ccc(Br)cc1)cn2CC(=O)N1CCC2(C)c3ccccc3N(C)C12` (stereo not given), the half-maximal inhibitory concentration (IC50) in test [1] is 7.31 µM; in the test on SW480 it was 8.52 µM; with A549, more than 20 µM; in the test with MCF7 it was 8.28 µM; in test [2], 8.72 µM.
Regarding `COc1ccc(C(=O)C[n+]2cn(CC(=O)N3CCC4(C)c5ccccc5N(Cc5ccccc5)C34)c3ccccc32)cc1` (stereo not given), the IC50 in test [1] was 5.94 µM; in the test with SW480 it was 8.35 µM; with A549 it was more than 20 µM; in the test with MCF7 it was 7.83 µM; in test [2] it was 10 µM.
Turning to `Cc1n(CC(=O)N2CCC3(C)c4ccccc4N(C)C23)cc[n+]1CC(=O)c1ccccc1` (stereo not given), the IC50 (in test [1]; in the test with SW480; in the test on A549; in the test on MCF7; in test [2]) was more than 20 µM in each case.
With `Cc1cc2c(cc1C)[n+](CC(=O)c1ccccc1)cn2CC(=O)N1CCC2(C)c3ccccc3N(Cc3ccccc3)C12` (stereo not given), the IC50 in test [1] stood at 1.47 µM; in the test with SW480, 7.09 µM; with A549, 6.54 µM; in the test on MCF7, 3.51 µM; in test [2], 5.78 µM.
For `Cc1cc2c(cc1C)[n+](CC(=O)c1ccc3ccccc3c1)cn2CC(=O)N1CCC2(C)c3ccccc3N(C)C12` (stereo not given) the same measures were 1.6 µM, 5.01 µM, 6.47 µM, 4.88 µM and 2.85 µM.
For the molecule `COc1ccc(C(=O)C[n+]2c(C)n(CC(=O)N3CCC4(C)c5ccccc5N(C)C34)c3ccccc32)cc1` (stereo not given), the IC50 (in test [1]; with SW480; with A549; in the test with MCF7; in test [2]) was more than 20 µM in each case.
In the case of `CC12CCN(C(=O)Cn3c[n+](Cc4ccc(Br)cc4)c4ccccc43)C1N(Cc1ccccc1)c1ccccc12` (stereo not given), the IC50 in test [1] was 1.42 µM; with SW480, 7.43 µM; in the test with A549, 7.59 µM; in the test on MCF7, 3.87 µM; in test [2], 7.53 µM.
On the same counts, the results for `Cc1n(CC(=O)N2CCC3(C)c4ccccc4N(C)C23)cc[n+]1CC(=O)c1ccc2ccccc2c1` (stereo not given) are more than 20 µM, more than 20 µM, more than 20 µM, more than 20 µM and more than 20 µM.
On the same counts, the results for `Cc1cc2c(cc1C)[n+](Cc1ccc(Br)cc1)cn2CC(=O)N1CCC2(C)c3ccccc3N(C)C12` (stereo not given) are 1.73 µM, 6.9 µM, 17.4 µM, 3.08 µM and 5.69 µM.
`CN1c2ccccc2C2(C)CCN(C(=O)Cn3cc[n+](Cc4ccc(Br)cc4)c3)C12` (stereo not given): the IC50 (in test [1]; in the test on SW480; in the test with A549; in the test on MCF7; in test [2]) was more than 20 µM in each case.
In the case of `Cc1cc2ncn(CC(=O)N3CCC4(C)c5ccccc5N(Cc5ccccc5)C34)c2cc1C` (stereo not given), the concentration for half-maximal inhibition (IC50) (in test [1]; in the test with SW480; in the test with A549; in the test with MCF7; in test [2]) was more than 20 µM in each case.
On to `Cc1nc2ccccc2n1CC(=O)N1CCC2(C)c3ccccc3N(C)C12` (stereo not given), for which the IC50 (in test [1]; in the test with SW480; in the test with A549; in the test on MCF7; in test [2]) was more than 20 µM each time.
As to `Cc1n(CC(=O)N2CCC3(C)c4ccccc4N(Cc4ccccc4)C23)c2ccccc2[n+]1CC(=O)c1ccccc1` (stereo not given), the IC50 was found to be 4.64 µM in test [1]; 8.31 µM in the test on SW480; 14.7 µM with A549; 6.35 µM in the test with MCF7; 9.28 µM in test [2].
For `Cc1n(CC(=O)N2CCC3(C)c4ccccc4N(Cc4ccccc4)C23)c2ccccc2[n+]1Cc1ccc(Br)cc1` (stereo not given), the concentration for half-maximal inhibition (IC50) in test [1] came out at 1.35 µM; in the test with SW480, 6.11 µM; in the test with A549, 7.91 µM; in the test on MCF7 it was 2.4 µM; in test [2], 5.1 µM.
As for `Cc1cc2c(cc1C)[n+](Cc1ccc3ccccc3c1)cn2CC(=O)N1CCC2(C)c3ccccc3N(Cc3ccccc3)C12` (stereo not given), the IC50 stood at 1.21 µM in test [1]; 1.76 µM in the test on SW480; 4.8 µM in the test with A549; 1.68 µM in the test on MCF7; 2.27 µM in test [2].
Consider `CN1c2ccccc2C2(C)CCN(C(=O)Cn3cc[n+](CC(=O)c4ccc(Br)cc4)c3)C12` (stereo not given), for which the half-maximal inhibitory concentration (IC50) (in test [1]; in the test with SW480; with A549; in the test on MCF7; in test [2]) was more than 20 µM in each case.
Take `CN1c2ccccc2C2(C)CCN(C(=O)Cn3c[n+](Cc4ccccc4Br)c4ccccc43)C12` (stereo not given): the IC50 is 5.07 µM in test [1]; more than 20 µM in the test with SW480; more than 20 µM in the test on A549; 14 µM in the test with MCF7; more than 20 µM in test [2].
As for `COc1ccc(C(=O)C[n+]2cn(CC(=O)N3CCC4(C)c5ccccc5N(C)C34)c3cc(C)c(C)cc32)cc1` (stereo not given), the IC50 in test [1] is 6.23 µM; in the test with SW480, 11.1 µM; with A549, more than 20 µM; in the test with MCF7, 8.15 µM; in test [2] it was 7.49 µM.

The values above are taken from ChEMBL document CHEMBL3745696, “Synthesis and cytotoxic activity of novel hexahydropyrrolo[2,3-b]indole imidazolium salts” (Bioorg Med Chem Lett, 2016).
